Data published in US20140073634A1 (Institute For Applied Cancer Science/The University of …, priority 2012, published 2014).

tested on: 293T-HRE-GFP-luc cells; assay: Cell-based reporter assay for IC50 determinations (HRE-luciferase, hypoxia); conditions: 6 h, 6 hrs hypoxia (1% O2), luminescence
Outline: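 IC50s come from four-parameter logistic fits of luminescence. Compounds in 1:3 DMSO series were added to 293T-HRE-GFP-luc cells, 30 min normoxia preceding 6 hrs at 1% O2, 37° C; HRE-luciferase signal was then measured with Steadylite Plus reagent.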

SMILES	IC50
COCCOc1cccc(Cn2cc(-c3noc(-c4cnc(N5CCOCC5)nc4)n3)ccc2=O)c1 [Example 242, 1-{[3-(2-methoxyethoxy)phenyl]methyl}-5-{5-[2-(morpholin-4-yl)pyrimidin-5-yl]-1,2,4-oxadiazol-3-yl}-1,2-dihydropyridin-2-one]	< 100 nM
COCCOc1cccc(Cn2cc(-c3noc(-c4cnc(N5CCC(C)(C)CC5)nc4)n3)ccc2=O)c1 [Example 243, 5-{5-[2-(4,4-dimethylpiperidin-1-yl)pyrimidin-5-yl]-1,2,4-oxadiazol-3-yl}-1-{[3-(2-methoxyethoxy)phenyl]methyl}-1,2-dihydropyridin-2-one]	< 100 nM
COCCOc1cccc(Cn2cc(-c3noc(-c4cnc(C5CC5)nc4)n3)ccc2=O)c1 [Example 244, 5-[5-(2-cyclopropylpyrimidin-5-yl)-1,2,4-oxadiazol-3-yl]-1-{[3-(2-methoxyethoxy)phenyl]methyl} 1,2-dihydropyridin-2-one]	< 100 nM
CNc1ncc(-c2nc(-c3ccc(=O)n(Cc4cccc(OCCOC)c4)c3)no2)cn1 [Example 245, 1-{[3-(2-methoxyethoxy)phenyl]methyl}-5-{5-[2-(methylamino)pyrimidin-5-yl]-1,2,4-oxadiazol-3-yl}-1,2-dihydropyridin-2-one]	100 to 1000 nM
COCCOc1cccc(Cn2cc(-c3noc(-c4cnc(NCC(C)C)nc4)n3)ccc2=O)c1 [Example 246]	< 100 nM
COCCOc1cccc(Cn2cc(-c3noc(-c4cnc(NCC(C)(C)C)nc4)n3)ccc2=O)c1 [Example 247, 5-(5-{2-[(2,2-dimethylpropyl)amino]pyrimidin-5-yl}-1,2,4-oxadiazol-3-yl)-1-{[3-(2-methoxyethoxy)phenyl]methyl}-1,2-dihydropyridin-2-one]	< 100 nM
COCCOc1cccc(Cn2cc(-c3noc(-c4cnc(NC(C)C)nc4)n3)ccc2=O)c1 [Example 248, 1-{[3-(2-methoxyethoxy)phenyl]methyl}-5-(5-{2-[(propan-2-yl)amino]pyrimidin-5-yl}-1,2,4-oxadiazol-3-yl)-1,2-dihydropyridin-2-one]	< 100 nM
COCCOc1cccc(Cn2cc(-c3noc(-c4cnc(NC(C)(C)C)nc4)n3)ccc2=O)c1 [Example 249, 5-{5-[2-(tert-butylamino)pyrimidin-5-yl]-1,2,4-oxadiazol-3-yl}-1-{[3-(2-methoxyethoxy)phenyl]methyl}-1,2-dihydropyridin-2-one]	< 100 nM
COCCOc1cccc(Cn2cc(-c3noc(-c4cnc(N5CCS(=O)(=O)CC5)nc4)n3)ccc2=O)c1 [Example 250, 5-(5-(2-(1,1-dioxidothiomorpholino)pyrimidin-5-yl)-1,2,4-oxadiazol-3-yl)-1-(3-(2-methoxyethoxy)benzyl)pyridin-2(1H)-one]	100 to 1000 nM
O=c1ccc(-c2cc(-c3ccc(OC(F)(F)F)cc3)no2)cn1Cc1cccc(N2CCS(=O)(=O)CC2)c1 [Example 251, 1-(3-(1,1-dioxidothiomorpholino)benzyl)-5-(3-(4-(trifluoromethoxy)phenyl)isoxazol-5-yl)pyridin-2(1H)-one]	< 100 nM
O=c1ccc(-c2cc(-c3ccc(OC(F)(F)F)cc3)no2)cn1Cc1cccc(N2CCCS2(=O)=O)c1 [Example 252, 1-(3-(1,1-dioxidoisothiazolidin-2-yl)benzyl)-5-(3-(4-(trifluoromethoxy)phenyl)isoxazol-5-yl)pyridin-2(1H)-one]	< 100 nM
O=c1ccc(-c2cc(-c3ccc(OC(F)(F)F)cc3)no2)cn1Cc1cccc(NC2CCS(=O)(=O)CC2)c1 [Example 253, 1-(3-((1,1-dioxidotetrahydro-2H-thiopyran-4-yl)amino)benzyl)-5-(3-(4-(trifluoromethoxy)phenyl)isoxazol-5-yl)pyridin-2(1H)-one]	< 100 nM
O=c1ccc(-c2cc(-c3ccc(OC(F)(F)F)cc3)no2)cn1Cc1cccc(NC2CCCS(=O)(=O)C2)c1 (stereo not drawn) [Example 254, 1-(3-((1,1-dioxidotetrahydro-2H-thiopyran-3-yl)amino)benzyl)-5-(3-(4-(trifluoromethoxy)phenyl)isoxazol-5-yl)pyridin-2(1H)-one]	< 100 nM
CC(C)c1ccc(-c2cc(-c3ccc(=O)n(Cc4cccc(N5CCC(S(C)(=O)=O)CC5)c4)c3)no2)cc1 [Example 255, 5-(5-(4-isopropylphenyl)isoxazol-3-yl)-1-(3-(4-(methylsulfonyl)piperidin-1-yl)benzyl)pyridin-2(1H)-one]	< 100 nM
COCCOc1cccc(Cn2cc(-c3nnc(-c4ccc(OC(F)F)cc4)o3)ccc2=O)c1 [Example 257, 5-{5-[4-(difluoromethoxy)phenyl]-1,3,4-oxadiazol-2-yl}-1-{[3-(2-methoxyethoxy)phenyl]methyl}-1,2-dihydropyridin-2-one]	100 to 1000 nM
COCCOc1cccc(Cn2cc(-c3nnc(-c4ccc(S(=O)(=O)C(F)(F)F)cc4)o3)ccc2=O)c1 [Example 258, 1-{[3-(2-methoxyethoxy)phenyl]methyl}-5-[5-(4-trifluoromethanesulfonylphenyl)-1,3,4-oxadiazol-2-yl]-1,2-dihydropyridin-2-one]	100 to 1000 nM
CS(=O)(=O)CCCOc1cccc(Cn2cc(-c3nnc(-c4ccc(S(=O)(=O)C(F)(F)F)cc4)o3)ccc2=O)c1 [Example 259, 1-{[3-(3-methanesulfonylpropoxy)phenyl]methyl}-5-[5-(4-trifluoromethanesulfonylphenyl)-1,3,4-oxadiazol-2-yl]-1,2-dihydropyridin-2-one]	< 100 nM
CC(C)(O)c1cccc(Cn2cc(-c3nnc(-c4ccc(S(=O)(=O)C(F)(F)F)cc4)o3)ccc2=O)c1 [Example 260, 1-{[3-(2-hydroxypropan-2-yl)phenyl]methyl}-5-[5-(4-trifluoromethanesulfonylphenyl)-1,3,4-oxadiazol-2-yl]-1,2-dihydropyridin-2-one]	100 to 1000 nM
CC(C)(O)c1cccc(Cn2cc(-c3nnc(-c4ccc(OC(F)F)cc4)o3)ccc2=O)c1 [Example 261, 5-{5-[4-(difluoromethoxy)phenyl]-1,3,4-oxadiazol-2-yl}-1-{[3-(2-hydroxypropan-2-yl)phenyl]methyl}-1,2-dihydropyridin-2-one]	100 to 1000 nM
CS(=O)(=O)CCCOc1cccc(Cn2cc(-c3nnc(-c4ccc(OC(F)F)cc4)o3)ccc2=O)c1 [Example 262, 5-{5-[4-(difluoromethoxy)phenyl]-1,3,4-oxadiazol-2-yl}-1-{[3-(3-methanesulfonylpropoxy)phenyl]methyl}-1,2-dihydropyridin-2-one]	< 100 nM
CC(C)Oc1ccc(-c2nnc(-c3ccc(=O)n(Cc4cccc(C(C)(C)O)c4)c3)o2)cc1 [Example 263, 1-{[3-(2-hydroxypropan-2-yl)phenyl]methyl}-5-{5-[4-(propan-2-yloxy)phenyl]-1,3,4-oxadiazol-2-yl}-1,2-dihydropyridin-2-one]	100 to 1000 nM
CC(C)Oc1ccc(-c2nnc(-c3ccc(=O)n(Cc4cccc(N5CCC(S(C)(=O)=O)CC5)c4)c3)o2)cc1 [Example 264, 1-{[3-[4-methanesulfonylpiperidin-1-yl)phenyl]methyl}-5-{5-[4-(propan-2-yloxy)phenyl]-1,3,4-oxadiazol-2-yl}-1,2-dihydropyridin-2-one]	100 to 1000 nM
COc1cccc(Cn2c(C)ccc(-c3nc(-c4ccc(OC(F)(F)F)cc4)no3)c2=O)c1 [Example 265, 1-[(3-methoxyphenyl)methyl]-6-methyl-3-{3-[4-(trifluoromethoxy)phenyl]-1,2,4-oxadiazol-5-yl}-1,2-dihydropyridin-2-one]	100 to 1000 nM
Cc1ccc(-c2nc(-c3ccc(OC(F)(F)F)cc3)no2)c(=O)n1Cc1cccc(OC(F)F)c1 [Example 266, 1-{[3-(difluoromethoxy)phenyl]methyl}-6-methyl-3-{3-[4-(trifluoromethoxy)phenyl]-1,2,4-oxadiazol-5-yl}-1,2-dihydropyridin-2-one]	100 to 1000 nM
Cc1ccc(-c2nc(-c3ccc(OC(F)(F)F)cc3)no2)c(=O)n1Cc1cccc(S(C)(=O)=O)c1 [Example 267, 1-[(3-methanesulfonylphenyl)methyl]-6-methyl-3-{3-[4-(trifluoromethoxy)phenyl]-1,2,4-oxadiazol-5-yl}-1,2-dihydropyridin-2-one]	100 to 1000 nM
Cc1ccc(-c2nc(-c3ccc(OC(F)(F)F)cc3)no2)c(=O)n1Cc1cccc(S(N)(=O)=O)c1 [Example 268, 3-[(6-methyl-2-oxo-3-{3-[4-(trifluoromethoxy)phenyl]-1,2,4-oxadiazol-5-yl}-1,2-dihydropyridin-1-yl)methyl]benzene-1-sulfonamide]	100 to 1000 nM
CN1CCN(c2cccc(Cn3cccc(-c4nc(-c5ccc(OC(F)(F)F)cc5)no4)c3=O)c2)CC1 [Example 270, 1-{[3-(4-methylpiperazin-1-yl)phenyl]methyl}-3-{3-[4-(trifluoromethoxy)phenyl]-1,2,4-oxadiazol-5-yl}-1,2-dihydropyridin-2-one]	< 100 nM
